Test results reported in patent US20260294883A1, “PHARMACEUTICAL COMPOSITION FOR THE TREATMENT OF POST-TRAUMATIC STRESS SYNDROME” (KINNOV THERAPEUTICS, priority 2022, published 2026).
Where a name gives a salt, the structure may show the parent alone.

Legend:
[1] = Azevedo et al., Neuropharmacology 164 (2020) 107912; cited from earlier work
[2] = conditioned fear test, Example 1 (freezing index 3 days after conditioning); format: in vivo, rodents; conditions: for p (freezing index, versus control group) / Freezing index / Freezing index, % vs witness: 3 days after conditioning, n = 10; for Freezing index: Mean ± SEM, witnesses 62.12 ± 9.93; for Freezing index, % vs witness: witnesses 100.00
Experimental: (§1) The conditioned fear test in rodents is recognized as a relevant preclinical model for the study of post-traumatic stress disorders.
(§2) During this test, animals are placed for a 4.5-minute conditioning session in a square box with a stainless steel mesh floor connected to a shock generator.
(§3) A conditioned stimulus (CS) consisting of a sound (80 dB, 2800 Hz, 30 seconds) is presented twice (at 1.5 min and then at 3.5 min).
(§4) An unconditioned stimulus consisting of an electric shock to the paws is delivered at the end of each CS (2 seconds, 0.6 mA).
(§5) The animals were then subjected to memory test sessions of the stressful event on different days after the session of packaging. The sessions of test of memorization (duration of 6 min) comprise a first period of 3 minutes without none CS presentation (period CS−) followed by a second 3 minute period during which the CS is presented (period CS+).
(§6) The sound stimulus alone triggers conditioned fear behavior. In rodents, this behavior is manifested by a prostrate attitude, an immobility behavior (i.e. «freezing») that is distinguished from the animal's exploratory behavior when placed in an enclosure for a short period.
(§7) The analyzed data are the time of immobility during the period CS− and during the period CS+. The freezing index is defined as the difference in immobility time between the period with the sound stimulus and the period without the sound. Therefore, the higher this index, the greater the post-traumatic stress state.
(§8) The «sham» group received no shock. The treatments were administered immediately after the conditioning session, and then 30 minutes before each conditioned fear session (no shock, but with the conditioned stimulus).
(§9) This test measures the effect of stress and its environment and its memorization (i.e. extinction).

[3] = conditioned fear test, Example 3 (comparison with paroxetine); format: in vivo, rodents; conditions: for Freezing index Day 1 / Freezing index Day 3 / Freezing index Day 4: n = 10; for Freezing index Day 1: witnesses 53.3 ± 5.7; for Freezing index Day 3: witnesses 38.1 ± 8.7; for Freezing index Day 4: Day 4, treatment stopped after day 3, witnesses 56.2 ± 9.8
Experimental: as §1, §2, §3, §4, §5, §6, §7, §8, §9
The protocol is identical to that of Example 1 above. In this example, the conditioned fear sessions and the freezing measurement are carried out on days 1, 3 and 4 after the conditioning session. The treatment is stopped after day 3, so that during the 4th observation session, no treatment is administered.

Question: Which “efficacy versus prazosin alone” value [1] does the source give for `COc1ccccc1N1CCN(CCn2cnc3ccccc3c2=O)CC1` [ACH-000029] here?
Answer: more effective than prazosin alone

Question: What does the source list for `CN1CCC(=C2c3ccccc3C=Cc3ccccc32)CC1` [Cyproheptadine, 4-(5-H-dibenzo[a,d]cyclohepten-5-ylidene)-1-methylpiperidine hydrochloride]?
Answer: p (freezing index, versus control group) ([2]; 0.5 mg/kg): ns; Freezing index ([2]; 0.5 mg/kg): 38.68 ± 5.84 s; Freezing index, % vs witness ([2]; 0.5 mg/kg): 62.28%

Question: With `Fc1ccc([C@@H]2CCNC[C@H]2COc2ccc3c(c2)OCO3)cc1` [Paroxetine] as the compound, how does the “Freezing index Day 1” value ([3]; 4 mg/kg) read?
Answer: 64.5 s

Question: What about the “Freezing index Day 3” value ([3]; 4 mg/kg) of the same compound?
Answer: 44.3 s

Question: And the “Freezing index Day 4” value ([3]; 4 mg/kg)?
Answer: 38.9 s

Question: And the “Freezing index Day 1” value ([3]; 8 mg/kg)?
Answer: 51.3 s

Question: And the “Freezing index Day 3” value ([3]; 8 mg/kg)?
Answer: 33.1 s

Question: What about the “Freezing index Day 4” value ([3]; 8 mg/kg) of the same compound?
Answer: 50.3 s

Question: What about the “effect on the memory component and impact of the stressful event / anxious reaction, in words” value ([3]; Example 3 conclusion) of the same compound?
Answer: no significant effect

Question: Which “p (freezing index, versus control group)” value ([2]; 0.5 mg/kg) does the source give for `COc1cc2nc(N3CCN(C(=O)c4ccco4)CC3)nc(N)c2cc1OC` [Prazosin, 2-[4-(2-furoyl)piperazin-1-yl]-6,7-dimethoxyquinazolin-4-amine] here?
Answer: ns

Question: What about the Freezing index ([2]; 0.5 mg/kg) of the same compound?
Answer: 41.97 ± 5.82 s

Question: And the “Freezing index, % vs witness” value ([2]; 0.5 mg/kg)?
Answer: 67.57%

Question: And the “p (freezing index, versus control group)” value ([2]; 1 mg/kg)?
Answer: ns

Question: What about the Freezing index ([2]; 1 mg/kg) of the same compound?
Answer: 35.29 ± 12.22 s

Question: What about the “Freezing index, % vs witness” value ([2]; 1 mg/kg) of the same compound?
Answer: 56.80%

Question: And the “effect on post-traumatic stress syndrome, in words” value ([2]; Example 1 conclusion, conditioned fear test)?
Answer: does not allow the treatment of post-traumatic stress syndrome
